{
  "source": "patent US4705788A",
  "about": "“Novel antibacterial 7-amino-1(substituted cyclopropyl)-1,4-dihydro-4-oxo-3-quinolinecarboxylic acids” (Bayer Aktiengesellschaft, priority 1985, dated 1987)",
  "assay_in_all_cases": "MIC, agar dilution test (Isosensitest medium), Denley multipoint inoculator",
  "type_in_all_cases": "cell-based",
  "key": {"[1]": {"system": "E. coli A 261", "conditions": "Escherichia coli, A261, strain E. coli A 261", "excerpt": "(§1) Agar dilution test (Isosensitest medium); Denley multipoint inoculator"}, "[2]": {"system": "Klebsiella 8085", "conditions": "strain Klebsiella 8085", "excerpt": "as §1"}, "[3]": {"system": "E. coli T 7", "conditions": "Escherichia coli, T7, strain E. coli T 7", "excerpt": "as §1"}, "[4]": {"system": "E. coli Neumann", "conditions": "Escherichia coli, strain E. coli Neumann", "excerpt": "as §1"}},
  "data": [
    {"compound": "CC1(n2cc(C(=O)O)c(=O)c3cc(F)c(N4CCNCC4)cc32)CC1", "note": "[Example 1, 6-fluoro-1,4-dihydro-1-(1-methylcyclopropyl)-4-oxo-7-(1-piperazinyl)-3-quinolinecarboxylic acid]", "values": [
      {"measurement": "MIC", "setting": "[1]", "result": "≤ 0.015", "unit": "µg/mL"},
      {"measurement": "MIC", "setting": "[2]", "result": 0.03, "unit": "µg/mL"},
      {"measurement": "MIC", "setting": "[3]", "result": "≤ 0.015", "unit": "µg/mL"},
      {"measurement": "MIC", "setting": "[4]", "result": 0.06, "unit": "µg/mL"}
    ]},
    {"compound": "CC1CN(c2cc3c(cc2F)c(=O)c(C(=O)O)cn3C2(C)CC2)CCN1", "note": "(stereo not drawn) [Example 3]", "values": [
      {"measurement": "MIC", "setting": "[1]", "result": 0.03, "unit": "µg/mL"},
      {"measurement": "MIC", "setting": "[2]", "result": 0.06, "unit": "µg/mL"},
      {"measurement": "MIC", "setting": "[3]", "result": 0.03, "unit": "µg/mL"},
      {"measurement": "MIC", "setting": "[4]", "result": 0.06, "unit": "µg/mL"}
    ]},
    {"compound": "CCn1cc(C(=O)O)c(=O)c2cc(F)c(N3CCNCC3)cc21", "note": "[Norfloxacin, reference compound]", "values": [
      {"measurement": "MIC", "setting": "[1]", "result": 0.03, "unit": "µg/mL"},
      {"measurement": "MIC", "setting": "[2]", "result": 0.125, "unit": "µg/mL"},
      {"measurement": "MIC", "setting": "[3]", "result": 0.06, "unit": "µg/mL"},
      {"measurement": "MIC", "setting": "[4]", "result": 0.06, "unit": "µg/mL"}
    ]}
  ]
}
